For 20 compounds, efflux ratio and Kp results are on record in patent US11919899B2, “Substituted 1-(3,3-difluoropiperidin-4-yl)-imidazo[4,5-c] quinolin-2-one compounds with blood-brain barrier penetrable capability” (priority 2020, dated 2024).

In one data set the target is T1, BCRP (Homo sapiens, UniProt Q9UNQ0).
T1 sequence (Q9UNQ0 1-655): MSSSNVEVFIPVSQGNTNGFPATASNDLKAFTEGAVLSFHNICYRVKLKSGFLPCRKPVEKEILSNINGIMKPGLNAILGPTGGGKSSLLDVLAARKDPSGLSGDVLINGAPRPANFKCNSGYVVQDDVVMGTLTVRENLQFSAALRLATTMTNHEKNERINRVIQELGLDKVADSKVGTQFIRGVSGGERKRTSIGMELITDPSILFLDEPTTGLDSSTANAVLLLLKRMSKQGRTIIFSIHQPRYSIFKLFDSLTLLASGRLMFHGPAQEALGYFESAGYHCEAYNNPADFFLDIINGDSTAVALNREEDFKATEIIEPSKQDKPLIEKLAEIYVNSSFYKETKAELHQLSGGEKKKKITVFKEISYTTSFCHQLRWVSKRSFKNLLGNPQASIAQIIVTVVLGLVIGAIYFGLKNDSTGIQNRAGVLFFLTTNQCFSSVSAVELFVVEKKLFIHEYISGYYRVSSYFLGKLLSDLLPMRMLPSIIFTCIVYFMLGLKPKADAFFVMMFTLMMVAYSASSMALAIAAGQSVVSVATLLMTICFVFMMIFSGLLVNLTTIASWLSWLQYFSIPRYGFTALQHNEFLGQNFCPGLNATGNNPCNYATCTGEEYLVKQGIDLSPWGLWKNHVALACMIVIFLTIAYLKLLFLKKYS
Description: BCRP efflux substrate. The format is in vitro ADME. As to conditions: not told.

A short description of data set [1]: Blood-brain barrier penetration (brain tissue to plasma concentration ratio). The format is in vivo. As to conditions: ratio of concentration in brain tissue to plasma; rats or mice, four hours after dosing. Here is the method: Four hours after dosing, rats or mice were sacrificed, blood and brain tissue were collected and the concentration of the test compound was analyzed. Brain permeation is defined as the ratio of the concentration of the compound in the brain tissue to the concentration in the plasma. P-glycoprotein and BCRP (Breast Cancer Resistance Protein) are the blood-brain barrier efflux proteins, the P-glycoprotein substrate (Efflux ratio>1.5) and/or BCRP substrate (Efflux ratio>1.5) is out of the brain.

The next data set addresses P-glycoprotein (Homo sapiens, UniProt P08183). In words: P-glycoprotein efflux substrate. Type of data set: in vitro ADME. As to conditions: not told.

SMILES strings stand for the structures. Some results are limits rather than exact numbers.

P-glycoprotein, sequence (P08183 whole entry): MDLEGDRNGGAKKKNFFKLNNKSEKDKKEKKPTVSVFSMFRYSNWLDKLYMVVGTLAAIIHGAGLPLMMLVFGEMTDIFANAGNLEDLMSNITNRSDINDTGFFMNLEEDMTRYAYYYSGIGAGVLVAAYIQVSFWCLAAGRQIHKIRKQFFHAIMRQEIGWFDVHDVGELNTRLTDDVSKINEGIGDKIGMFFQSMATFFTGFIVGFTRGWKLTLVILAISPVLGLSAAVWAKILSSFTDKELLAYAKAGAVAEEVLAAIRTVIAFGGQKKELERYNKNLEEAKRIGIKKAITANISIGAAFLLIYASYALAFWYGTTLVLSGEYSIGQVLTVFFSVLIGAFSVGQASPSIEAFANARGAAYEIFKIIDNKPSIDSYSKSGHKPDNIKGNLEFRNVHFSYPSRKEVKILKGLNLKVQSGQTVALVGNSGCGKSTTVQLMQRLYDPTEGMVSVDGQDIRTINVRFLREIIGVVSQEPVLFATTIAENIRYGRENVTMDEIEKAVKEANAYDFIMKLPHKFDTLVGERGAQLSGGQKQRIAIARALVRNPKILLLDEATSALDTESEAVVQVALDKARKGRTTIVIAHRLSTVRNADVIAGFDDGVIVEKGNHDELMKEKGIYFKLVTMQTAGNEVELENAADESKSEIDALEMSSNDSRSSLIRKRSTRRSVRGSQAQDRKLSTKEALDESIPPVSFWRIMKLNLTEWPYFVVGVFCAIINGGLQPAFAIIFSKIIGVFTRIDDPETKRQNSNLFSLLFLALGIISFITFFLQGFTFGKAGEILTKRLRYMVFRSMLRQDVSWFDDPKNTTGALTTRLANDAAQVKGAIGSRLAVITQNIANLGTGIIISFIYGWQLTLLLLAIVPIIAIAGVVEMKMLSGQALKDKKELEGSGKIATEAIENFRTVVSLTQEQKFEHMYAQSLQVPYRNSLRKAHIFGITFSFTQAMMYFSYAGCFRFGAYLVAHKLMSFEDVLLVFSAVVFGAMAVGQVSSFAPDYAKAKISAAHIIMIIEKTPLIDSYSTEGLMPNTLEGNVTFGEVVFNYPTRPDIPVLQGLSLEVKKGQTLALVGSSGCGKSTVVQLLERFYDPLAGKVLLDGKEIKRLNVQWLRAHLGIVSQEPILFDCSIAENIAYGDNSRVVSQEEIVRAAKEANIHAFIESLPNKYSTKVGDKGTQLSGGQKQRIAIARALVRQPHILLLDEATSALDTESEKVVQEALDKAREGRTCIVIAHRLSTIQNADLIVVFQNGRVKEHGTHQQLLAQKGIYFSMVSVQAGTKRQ

What is called efflux ratio is the permeability from basolateral to apical divided by that in the opposite direction, in the common usage. The Kp is tissue or fluid exposure divided by exposure in the circulation. As for `CCN1CCC(n2c(=O)n(C)c3cnc4ccc(-c5ccc(OC)nc5)cc4c32)C(F)(F)C1` (racemic) [Compound 2, (R/S)-1-(1-ethyl-3,3-difluoropiperidin-4-yl)-8-(6-methoxypyridin-3-yl)-3-methyl-1,3-dihydro-2H-imidazo[4,5-c]quinolin-2-one], the efflux ratio on BCRP and at P-glycoprotein was less than 1 throughout. Also, in data set [1], the Kp at 4 h was greater than 0.3.
On to `COc1ccc(-c2ccc3ncc4c(c3c2)n(C2CCN(C(C)C)CC2(F)F)c(=O)n4C)cn1` (racemic) [Compound 3, (R/S)-1-(3,3-difluoro-1-isopropylpiperidin-4-yl)-8-(6-methoxypyridin-3-yl)-3-methyl-1,3-dihydro-2H-imidazo[4,5-c]quinolin-2-one], for which the efflux ratio at BCRP and at P-glycoprotein was less than 1 throughout. The Kp at 4 h in data set [1] is greater than 0.3.
With `CCOc1ccc(-c2ccc3ncc4c(c3c2)n(C2CCN(C)CC2(F)F)c(=O)n4C)cn1` (racemic) [Compound 4, (R/S)-1-(3,3-difluoro-1-methylpiperidin-4-yl)-8-(6-ethoxypyridin-3-yl)-3-methyl-1,3-dihydro-2H-imidazo[4,5-c]quinolin-2-one], the efflux ratio on BCRP and on P-glycoprotein was less than 1 in each case. The Kp at 4 h in data set [1] is greater than 0.3.
Regarding `COc1ccc(-c2cc3c(cc2F)ncc2c3n(C3CCN(C)CC3(F)F)c(=O)n2C)cn1` (racemic) [Compound 5, (R/S)-1-(3,3-difluoro-1-methylpiperidin-4-yl)-7-fluoro-8-(6-methoxypyridin-3-yl)-3-methyl-1,3-dihydro-2H-imidazo[4,5-c]quinolin-2-one], the efflux ratio on BCRP and on P-glycoprotein was less than 1 each time. Besides, the Kp at 4 h in data set [1] is greater than 0.3.
As to `CC(C)Oc1ccc(-c2ccc3ncc4c(c3c2)n(C2CCN(C)CC2(F)F)c(=O)n4C)cn1` (racemic) [Compound 7, (R/S)-1-(3,3-difluoro-1-methylpiperidin-4-yl)-8-(6-isopropoxypyridin-3-yl)-3-methyl-1,3-dihydro-2H-imidazo[4,5-c]quinolin-2-one], the efflux ratio on BCRP and on P-glycoprotein was less than 1 throughout. Besides, the Kp at 4 h in data set [1] is greater than 0.3.
Take `CN1CCC(n2c(=O)n(C)c3cnc4ccc(-c5ccc(N(C)C)nc5)cc4c32)C(F)(F)C1` (racemic) [Compound 8, (R/S)-1-(3,3-difluoro-1-methylpiperidin-4-yl)-8-(6-(dimethylamino)pyridin-3-yl)-3-methyl-1,3-dihydro-2H-imidazo[4,5-c]quinolin-2-one]: the efflux ratio at BCRP and on P-glycoprotein was less than 1 throughout. In addition, the Kp at 4 h in data set [1] is greater than 0.3.
With `CN1CCC(n2c(=O)n(C)c3cnc4ccc(-c5ccc(OC6CC6)nc5)cc4c32)C(F)(F)C1` (racemic) [Compound 10, (R/S)-8-(6-cyclopropoxypyridin-3-yl)-1-(3,3-difluoro-1-methylpiperidin-4-yl)-3-methyl-1,3-dihydro-2H-imidazo[4,5-c]quinolin-2-one], the efflux ratio at BCRP and on P-glycoprotein was less than 1 each time. Also, the Kp at 4 h in data set [1] was greater than 0.3.
As for `CN1CCC(n2c(=O)n(C)c3cnc4ccc(-c5ccc(N6CC(N(C)C)C6)nc5)cc4c32)C(F)(F)C1` (racemic) [Compound 11, (R/S)-1-(3,3-difluoro-1-methylpiperidin-4-yl)-8-(6-(3-(dimethylamino)azetidin-1-yl)pyridin-3-yl)-3-methyl-1,3-dihydro-2H-imidazo[4,5-c]quinolin-2-one], the efflux ratio on BCRP and at P-glycoprotein was less than 1 in each case. Besides, the Kp at 4 h in data set [1] was greater than 0.3.
For `CN1CCC(n2c(=O)n(C)c3cnc4ccc(-c5ccc(N6CC7C6CCN7C)nc5)cc4c32)C(F)(F)C1` (racemic) [Compound 13, (R/S)-1-(3,3-difluoro-1-methylpiperidin-4-yl)-3-methyl-8-(6-((1R,5R/1S,5S)-(2-methyl-2,6-diazabicyclo[3.2.0]heptan-6-yl)pyridin-3-yl)-1,3-dihydro-2H-imidazo[4,5-c]quinolin-2-one], the efflux ratio at BCRP and on P-glycoprotein was less than 1 throughout. Moreover, the Kp at 4 h in data set [1] is greater than 0.3.
As for `CCN1CC[C@@H](n2c(=O)n(C)c3cnc4ccc(-c5ccc(OC)nc5)cc4c32)C(F)(F)C1` [Compound 15, (R)-1-(1-ethyl-3,3-difluoropiperidin-4-yl)-8-(6-methoxypyridin-3-yl)-3-methyl-1,3-dihydro-2H-imidazo[4,5-c]quinolin-2-one], the efflux ratio at BCRP and on P-glycoprotein was less than 1 in each case. For the same compound, the Kp at 4 h in data set [1] was greater than 0.3.
On to `COc1ccc(-c2ccc3ncc4c(c3c2)n([C@@H]2CCN(C(C)C)CC2(F)F)c(=O)n4C)cn1` [Compound 16, (R)-1-(3,3-difluoro-1-isopropylpiperidin-4-yl)-8-(6-methoxypyridin-3-yl)-3-methyl-1,3-dihydro-2H-imidazo[4,5-c]quinolin-2-one], for which the efflux ratio at BCRP and at P-glycoprotein was less than 1 each time. Further, the Kp at 4 h in data set [1] is greater than 0.3.
With `CCOc1ccc(-c2ccc3ncc4c(c3c2)n([C@@H]2CCN(C)CC2(F)F)c(=O)n4C)cn1` [Compound 17, (R)-1-(3,3-difluoro-1-methylpiperidin-4-yl)-8-(6-ethoxypyridin-3-yl)-3-methyl-1,3-dihydro-2H-imidazo[4,5-c]quinolin-2-one], the efflux ratio at BCRP and at P-glycoprotein was less than 1 each time. In addition, the Kp at 4 h in data set [1] is greater than 0.3.
In the case of `COc1ccc(-c2cc3c(cc2F)ncc2c3n([C@@H]3CCN(C)CC3(F)F)c(=O)n2C)cn1` [Compound 18, (R)-1-(3,3-difluoro-1-methylpiperidin-4-yl)-7-fluoro-8-(6-methoxypyridin-3-yl)-3-methyl-1,3-dihydro-2H-imidazo[4,5-c]quinolin-2-one], the efflux ratio at BCRP and on P-glycoprotein was less than 1 in each case. Moreover, the concentration ratio (Kp) at 4 h in data set [1] was greater than 0.3.
Regarding `CC(C)Oc1ccc(-c2ccc3ncc4c(c3c2)n([C@@H]2CCN(C)CC2(F)F)c(=O)n4C)cn1` [Compound 20, (R)-1-(3,3-difluoro-1-methylpiperidin-4-yl)-8-(6-isopropoxypyridin-3-yl)-3-methyl-1,3-dihydro-2H-imidazo[4,5-c]quinolin-2-one], the efflux ratio on BCRP and at P-glycoprotein was less than 1 throughout. The partition ratio (Kp) at 4 h in data set [1] was greater than 0.3.
On to `CN1CC[C@@H](n2c(=O)n(C)c3cnc4ccc(-c5ccc(N(C)C)nc5)cc4c32)C(F)(F)C1` [Compound 21, (R)-1-(3,3-difluoro-1-methylpiperidin-4-yl)-8-(6-(dimethylamino)pyridin-3-yl)-3-methyl-1,3-dihydro-2H-imidazo[4,5-c]quinolin-2-one], for which the efflux ratio at BCRP and on P-glycoprotein was less than 1 each time. Besides, the Kp at 4 h in data set [1] is greater than 0.3.
For the compound `CN1CC[C@@H](n2c(=O)n(C)c3cnc4ccc(-c5ccc(OC6CC6)nc5)cc4c32)C(F)(F)C1` [Compound 23, (R)-8-(6-cyclopropoxypyridin-3-yl)-1-(3,3-difluoro-1-methylpiperidin-4-yl)-3-methyl-1,3-dihydro-2H-imidazo[4,5-c]quinolin-2-one], the efflux ratio at BCRP and at P-glycoprotein was less than 1 throughout. Also, the Kp at 4 h in data set [1] is greater than 0.3.
Turning to `CN1CC[C@@H](n2c(=O)n(C)c3cnc4ccc(-c5ccc(N6CC(N(C)C)C6)nc5)cc4c32)C(F)(F)C1` [Compound 24, (R)-1-(3,3-difluoro-1-methylpiperidin-4-yl)-8-(6-(3-(dimethylamino)azetidin-1-yl)pyridin-3-yl)-3-methyl-1,3-dihydro-2H-imidazo[4,5-c]quinolin-2-one], the efflux ratio at BCRP and on P-glycoprotein was less than 1 throughout. Moreover, the concentration ratio (Kp) at 4 h in data set [1] was greater than 0.3.
`CN1CC[C@@H](n2c(=O)n(C)c3cnc4ccc(-c5ccc(N6C[C@@H]7[C@H]6CCN7C)nc5)cc4c32)C(F)(F)C1` [Compound 26]: the efflux ratio on BCRP and at P-glycoprotein was less than 1 each time. Further, in data set [1], the Kp at 4 h was greater than 0.3.
For the compound `CN1CC[C@@H](n2c(=O)n(C)c3cnc4ccc(-c5ccc(N6C[C@H]7[C@@H]6CCN7C)nc5)cc4c32)C(F)(F)C1` [Compound 27], the efflux ratio at BCRP and on P-glycoprotein was less than 1 throughout. Further, in data set [1], the concentration ratio (Kp) at 4 h was greater than 0.3.
Consider `CCN1CC[C@H](n2c(=O)n(C)c3cnc4ccc(-c5ccc(OC)nc5)cc4c32)C(F)(F)C1` [Compound 29, (S)-1-(1-ethyl-3,3-difluoropiperidin-4-yl)-8-(6-methoxypyridin-3-yl)-3-methyl-1,3-dihydro-2H-imidazo[4,5-c]quinolin-2-one], for which the efflux ratio at BCRP and at P-glycoprotein was less than 1 each time. The Kp at 4 h in data set [1] was greater than 0.3.
